Data: PubChem BioAssay AID256 (DTP/NCI, 2004)
Values joined by “and” are separate entries in the source; they are usually repeats but may differ in a detail not shown here. Equal values may be shown once. Inconclusive results and toxic doses are left out. The calls were made as follows: active = survival T/C of 150% or more; inactive = T/C below 125% in these data.

Tested on: CD2F1 mice, L1210 leukemia ip, survival T/C
Assay: NCI In Vivo Anticancer Drug Screen. Data for tumor model L1210 Leukemia (intraperitoneal) in CD2F1 (CDF1) mice
Details: higher = longer survival
Procedure, shortened: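 Tumor-bearing mice (transplanted tumor) were split into treated and vehicle control groups, and the measured endpoint of each treated group was divided by that of its vehicle controls.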

[1] = endpoint: mean survival time, dose: 100.0 mg/kg/injection, schedule: Q01DX009 (ip), vehicle: saline with Tween-80
[2] = endpoint: mean survival time, dose: 200.0 mg/kg/injection, schedule: Q01DX009 (ip), vehicle: saline with Tween-80
[3] = endpoint: mean survival time, dose: 100.0 mg/kg/injection, schedule: Q04DX002 (ip), vehicle: saline with Tween-80
[4] = endpoint: mean survival time, dose: 200.0 mg/kg/injection, schedule: Q04DX002 (ip), vehicle: saline with Tween-80
[5] = endpoint: mean survival time, dose: 100.0 mg/kg/injection, schedule: Q04DX003 (ip), vehicle: saline with Tween-80
[6] = endpoint: mean survival time, dose: 25.0 mg/kg/injection, schedule: Q01DX009 (ip), vehicle: saline with Tween-80
[7] = endpoint: mean survival time, dose: 50.0 mg/kg/injection, schedule: Q01DX009 (ip), vehicle: saline with Tween-80
[8] = endpoint: mean survival time, dose: 400.0 mg/kg/injection, schedule: Q01DX009 (ip), vehicle: saline with Tween-80
[9] = endpoint: mean survival time, dose: 12.5 mg/kg/injection, schedule: Q01DX009 (ip), vehicle: saline with Tween-80
[10] = endpoint: mean survival time, dose: 12.5 mg/kg/injection, schedule: Q04DX003 (ip), vehicle: saline
[11] = endpoint: mean survival time, dose: 100.0 mg/kg/injection, schedule: Q04DX003 (ip), vehicle: saline
[12] = endpoint: mean survival time, dose: 200.0 mg/kg/injection, schedule: Q04DX003 (ip), vehicle: saline
[13] = endpoint: mean survival time, dose: 25.0 mg/kg/injection, schedule: Q01DX005 (ip), vehicle: water
[14] = endpoint: mean survival time, dose: 50.0 mg/kg/injection, schedule: Q01DX005 (ip), vehicle: water
[15] = endpoint: mean survival time, dose: 75.0 mg/kg/injection, schedule: Q01DX001 (ip), vehicle: other
[16] = endpoint: mean survival time, dose: 150.0 mg/kg/injection, schedule: Q01DX001 (ip), vehicle: other
[17] = endpoint: mean survival time, dose: 300.0 mg/kg/injection, schedule: Q01DX001 (ip), vehicle: other

Measured: T/C

c1ccc(-c2cc3cc4ccccc4cn3c2)cc1
inactive: endpoint: median survival time, dose: 50.0 mg/kg/injection, schedule: Q01DX009 (ip), vehicle: saline with Tween-80 104 % of control | endpoint: median survival time, dose: 100.0 mg/kg/injection, schedule: Q01DX009 (ip), vehicle: saline with Tween-80 100 % of control | endpoint: median survival time, dose: 200.0 mg/kg/injection, schedule: Q01DX009 (ip), vehicle: saline with Tween-80 108 % of control | endpoint: median survival time, dose: 400.0 mg/kg/injection, schedule: Q01DX009 (ip), vehicle: saline with Tween-80 113 % of control | endpoint: median survival time, dose: 800.0 mg/kg/injection, schedule: Q01DX009 (ip), vehicle: saline with Tween-80 110 % of control

C1=CC2C3C=CC(CC3)C2CC1 (stereo not given)
inactive: [1] 103 % of control | [2] 98 % of control

COC(=O)CC/C=C\Cc1c(OC)c(C)c2c(c1OC=O)C(=O)OC2
inactive: [3] 108 % of control | [4] 108 % of control | endpoint: median survival time, dose: 100.0 mg/kg/injection, schedule: Q04DX002 (ip), vehicle: saline with Tween-80 112 % of control | endpoint: median survival time, dose: 200.0 mg/kg/injection, schedule: Q04DX002 (ip), vehicle: saline with Tween-80 112 % of control

[Cl][Pt][Cl].[NH-]NC(=O)c1ccncc1
inactive: endpoint: mean survival time, dose: 12.5 mg/kg/injection, schedule: Q04DX003 (ip), vehicle: saline with Tween-80 95 % of control | endpoint: mean survival time, dose: 25.0 mg/kg/injection, schedule: Q04DX003 (ip), vehicle: saline with Tween-80 94 % of control | endpoint: mean survival time, dose: 50.0 mg/kg/injection, schedule: Q04DX003 (ip), vehicle: saline with Tween-80 91 % of control | [5] 94 % of control | endpoint: mean survival time, dose: 200.0 mg/kg/injection, schedule: Q04DX003 (ip), vehicle: saline with Tween-80 88 % of control

CN(C)C(=O)Sc1ccc(S(=O)(=O)F)cc1F
inactive: [3] 91 % of control | [4] 91 % of control

CCCCCCCCC[n+]1ccc(C(N)=O)cc1
inactive: [6] 103 % of control | [7] 95 % of control | [1] 95 % of control

CCOC(=O)NC12c3ccccc3C(c3ccccc31)C(C(=O)O)C2C(=O)O (stereo not given)
inactive: [1] 90 % of control | [2] 100 % of control | [8] 103 % of control

COC(=O)C1OC([n+]2ccccc2)C(OC(C)=O)C(OC(C)=O)C1OC(C)=O (stereo not given)
inactive: endpoint: median survival time, dose: 12.5 mg/kg/injection, schedule: Q01DX005 (ip), vehicle: saline 103 % of control | endpoint: median survival time, dose: 25.0 mg/kg/injection, schedule: Q01DX005 (ip), vehicle: saline 107 % of control | endpoint: median survival time, dose: 50.0 mg/kg/injection, schedule: Q01DX005 (ip), vehicle: saline 100 % of control | endpoint: median survival time, dose: 100.0 mg/kg/injection, schedule: Q01DX005 (ip), vehicle: saline 107 % of control | endpoint: median survival time, dose: 200.0 mg/kg/injection, schedule: Q01DX005 (ip), vehicle: saline 103 % of control

CC(N)CCc1ccccc1 (stereo not given)
inactive: [9] 102 % of control | [6] 100 % of control | [7] 102 % of control

CCC(C#N)C1=CCCCCC1 (stereo not given)
inactive: [5] 103 % of control

[I][Pt+2][I].[NH-]CC[NH-]
inactive: endpoint: mean survival time, dose: 20.0 mg/kg/injection, schedule: Q04DX003 (ip), vehicle: water 115 % of control | endpoint: mean survival time, dose: 40.0 mg/kg/injection, schedule: Q04DX003 (ip), vehicle: water 116 % of control | endpoint: mean survival time, dose: 80.0 mg/kg/injection, schedule: Q04DX003 (ip), vehicle: water 120 % of control | endpoint: mean survival time, dose: 160.0 mg/kg/injection, schedule: Q04DX003 (ip), vehicle: water 115 % of control | endpoint: mean survival time, dose: 320.0 mg/kg/injection, schedule: Q04DX003 (ip), vehicle: water 93 % of control

Cc1cc(=O)[nH]c(=S)[nH]1.[Pd]
inactive: endpoint: mean survival time, dose: 3.12 mg/kg/injection, schedule: Q04DX003 (ip), vehicle: saline 103 % of control | endpoint: mean survival time, dose: 6.25 mg/kg/injection, schedule: Q04DX003 (ip), vehicle: saline 108 % of control | [10] 105 % of control | endpoint: mean survival time, dose: 25.0 mg/kg/injection, schedule: Q04DX003 (ip), vehicle: saline 100 % of control | endpoint: mean survival time, dose: 50.0 mg/kg/injection, schedule: Q04DX003 (ip), vehicle: saline 102 % of control | [11] 102 % of control | [12] 100 % of control

CN(C)/C=N\c1ncnc2c1cnn2C1OC(CO)C(O)C1O (stereo not given)
inactive: endpoint: mean survival time, dose: 3.13 mg/kg/injection, schedule: Q01DX005 (ip), vehicle: water 96 % of control | endpoint: mean survival time, dose: 6.25 mg/kg/injection, schedule: Q01DX005 (ip), vehicle: water 102 % of control | endpoint: mean survival time, dose: 12.5 mg/kg/injection, schedule: Q01DX005 (ip), vehicle: water 110 % of control | [13] 98 % of control and 107 % of control | [14] 113 % of control and 110 % of control

CC(=O)COc1ccccc1[N+](=O)[O-]
inactive: endpoint: mean survival time, dose: 100.0 mg/kg/injection, schedule: Q01DX001 (ip), vehicle: saline with Tween-80 108 % of control | endpoint: mean survival time, dose: 200.0 mg/kg/injection, schedule: Q01DX001 (ip), vehicle: saline with Tween-80 104 % of control | endpoint: mean survival time, dose: 400.0 mg/kg/injection, schedule: Q01DX001 (ip), vehicle: saline with Tween-80 112 % of control

N/C(=N\OCc1ccccc1)c1ncn(C2CCCC2)c1N
inactive: [15] 102 % of control | [16] 106 % of control | [17] 103 % of control

Cc1cc(C)c(O)c(C)c1
inactive: endpoint: mean survival time, dose: 50.0 mg/kg/injection, schedule: Q01DX009 (ip), vehicle: Klucel (hydroxypropylcellulose) (HPC) 96 % of control | endpoint: mean survival time, dose: 100.0 mg/kg/injection, schedule: Q01DX009 (ip), vehicle: Klucel (hydroxypropylcellulose) (HPC) 93 % of control | endpoint: mean survival time, dose: 200.0 mg/kg/injection, schedule: Q01DX009 (ip), vehicle: Klucel (hydroxypropylcellulose) (HPC) 93 % of control

O=C(O)c1cccc(F)c1Cl
inactive: [3] 95 % of control | [4] 102 % of control

CCCCCCC(C)Oc1ccccc1Cl (stereo not given)
inactive: [3] 107 % of control | [4] 86 % of control | endpoint: mean survival time, dose: 400.0 mg/kg/injection, schedule: Q04DX002 (ip), vehicle: saline with Tween-80 96 % of control

C[N+](C)(C)Cc1ccccc1
inactive: endpoint: mean survival time, dose: 3.13 mg/kg/injection, schedule: Q01DX009 (ip), vehicle: saline with Tween-80 97 % of control | endpoint: mean survival time, dose: 6.25 mg/kg/injection, schedule: Q01DX009 (ip), vehicle: saline with Tween-80 97 % of control | [9] 95 % of control | [10] 104 % of control

CC1CN(Cc2ccccc2O)CC(C)N1 (stereo not given)
inactive: [13] 96 % of control | [14] 94 % of control | endpoint: mean survival time, dose: 100.0 mg/kg/injection, schedule: Q01DX005 (ip), vehicle: water 94 % of control

O=C(Cc1ccccc1[N+](=O)[O-])NCC1(c2cccc3c2OCO3)OCCO1
inactive: [15] 96 % of control | [16] 91 % of control | [17] 96 % of control

C=C(C)COc1c(C)cc(C)cc1[N+](=O)[O-]
inactive: [1] 98 % of control | [2] 100 % of control | [8] 104 % of control

O=C(O)c1ccc(C(=O)O)c2c(C(=O)O)ccc(C(=O)O)c12
inactive: [1] 95 % of control | [11] 97 % of control | [2] 90 % of control | [12] 96 % of control | endpoint: mean survival time, dose: 400.0 mg/kg/injection, schedule: Q04DX003 (ip), vehicle: saline 93 % of control

C#CCOC(=O)Nc1ccccc1Cl
inactive: endpoint: mean survival time, dose: 100.0 mg/kg/injection, schedule: Q04DX003 (ip), vehicle: Klucel (hydroxypropylcellulose) (HPC) 93 % of control | endpoint: mean survival time, dose: 200.0 mg/kg/injection, schedule: Q04DX003 (ip), vehicle: Klucel (hydroxypropylcellulose) (HPC) 105 % of control | endpoint: mean survival time, dose: 400.0 mg/kg/injection, schedule: Q04DX003 (ip), vehicle: Klucel (hydroxypropylcellulose) (HPC) 98 % of control
